Like-named read-outs stand apart in the source and are kept apart here.

Assay [1] addresses T1, DHFR-C-HiBiT (Homo sapiens, UniProt P00374).
T1 sequence (P00374 2-187): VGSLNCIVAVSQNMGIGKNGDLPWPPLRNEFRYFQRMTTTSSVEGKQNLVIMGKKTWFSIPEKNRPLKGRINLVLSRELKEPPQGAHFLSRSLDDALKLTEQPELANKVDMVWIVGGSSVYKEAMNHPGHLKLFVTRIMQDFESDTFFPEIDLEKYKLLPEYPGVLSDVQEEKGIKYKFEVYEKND
The experiment in a line: SDR assay, purified DHFR-C-HiBiT.

The target in assay [2] is T1, DHFR-C-HiBiT. The experiment in a line: Dihydrofolate reductase enzymatic absorbance assay. Format: biochemical. Also on record: His10 (C); made in house; host or cells: E. coli. On the procedure: To accommodate consistent compound addition used in this study, DHFR enzymatic activity[72],[73] was measured in a 1536-well miniaturized assay adapted from the Sigma-Aldrich dihydrofolate reductase assay (Cat # CS0340). […] Compounds and controls were added as above to each plate as described in Supplementary Data 8. DHFR-C-HiBiT was incubated with compounds for 20 min at ambient temperature. […] Then 2 µL of dihydrofolate (DHF, Sigma-Aldrich, Cat # D7006) substrate, freshly prepared according to manufacturer’s protocol and diluted in 1X assay kit buffer, was dispensed into each microplate well with a BioRaptr 2 for a final assay DHF concentration of 100 μM. […] See Supplementary Table 9 for additional details.
Supplementary Table 9. Protocol for Dihydrofolate reductase (DHFR) enzymatic absorbance […]
Supplementary Table 9: Protocol for Dihydrofolate reductase (DHFR) enzym atic absorbance assay Sequence Param eter ValueDescription
No enzym e control (colum n 1) and enzym e solution (100 nM DHFR-C-HiBiT final assay […]
(Aurora), dispensed with BioRaptr 2 […]
com pounds transferred to respective colum ns with Pintool
2b Test Com pounds 23 nLfinal concentration range) in colum ns 5-48; com pounds transferred to respective wells with […]
3 Incubation 20 m inIncubate enzym e + com pounds at am bient tem p for 20 m in, protected from light 5 Reagent 2 µLSubstrate solution; dihydrofolic acid (100 µM final concentration) in 1X assay buffer; dispensed with BioRaptr 2
6 Incubation 10 m inAm bient tem perature, protected from light
Dihydrofolic acid substrate solution: 1X assay buffer (Sigm a-Aldrich, Cat # A5603); 300 µM dihydrofolic acid (100 µM 5 final) (Sigm a-Aldrich, Cat # D7006) prepared fresh according to m anufacturer’s protocol. Solution filtered through 0.22 µm syringe filter prior to dispense.

The target of assay [3] is T2, endogenous DHFR-C-HiBiT in HEK293 cell lysate (Homo sapiens, UniProt P00374).
T2 construct: from a mammalian cellular lysate containing an endogenous α-peptide tagged protein, obtained using CRISPR/Cas9-mediated homologous recombination; host or cells: HEK293 constitutively expressing S. pyogenes Cas9, CRISPR/HDR-edited monoclonal line; NP-40 lysate used at 1:100
T2 sequence (P00374 1-187): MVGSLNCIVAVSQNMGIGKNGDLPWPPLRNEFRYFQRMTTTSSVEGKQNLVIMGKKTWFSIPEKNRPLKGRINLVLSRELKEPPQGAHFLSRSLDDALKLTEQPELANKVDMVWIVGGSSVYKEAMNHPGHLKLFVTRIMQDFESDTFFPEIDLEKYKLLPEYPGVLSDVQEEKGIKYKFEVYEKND
Put plainly: SDR assay, cellular lysate from DHFR C-terminus HiBiT gene edited HEK293 cells. It counts as binding. From the text:
A HEK293 cell line constitutively expressing S. pyogenes Cas9 (GeneCopoeia, Cat # SL553) was used to generate the C-terminal edit of the DHFR gene (DHFR-C-HiBiT) applying general methodology previously described[24],[52],[53]. The DHFR 3’-gene sequence surrounding the stop codon (underlined), […] […], used to generate the CRISPR-Cas9 crRNA sequence, […], was accomplished with IDT software (Custom Alt-R CRISPR-Cas9 guide RNA).
For lysate preparation, the DHFR-C-HiBiT gene edited HEK293 monoclonal cell line was grown in a T75 flask (DMEM, 10% FBS, 1% P/S) to confluence. […] The cell pellet was lysed by adding 500 μL ice-cold NP-40 lysis buffer (ThermoFisher Scientific, Cat # FNN0021) containing 5 µL 100x protease inhibitor cocktail in DMSO (Sigma Aldrich, Cat # P8340-1mL) incubated on a rocker at 4 °C for 1 h (protected from light), centrifuged at 15,000 g for 10 min at 4 °C, after which supernatant was transferred to a 1.5 mL Eppendorf tube, and frozen at −80 °C.
Protein-HiBiT targets were expressed and purified to various levels of homogeneity and optimized at indicated concentrations, not necessarily the lowest possible concentrations, to produce consistent luminescence with statistically significant signal above no protein background control in target specific assay buffer (see Supplementary Table 11). Four μL/well buffer control (column 1) and NLuc or HiBiT tagged proteins (columns 2-48) were dispensed into 1536-well Greiner Bio-One white, high solid base, medium bind plates with a BioRaptr 2. Compounds and controls were added to the microtiter plates as described in Supplementary Data 8, then incubated and protected from light for 30 min at ambient temperature. A modified dispensing protocol was developed for aqueous ligands that were unable to be transferred by pintool (see Supplementary Table 10 aqueous ligand dispense section). The substrate solution was prepared according to manufacturer’s protocol where ω-fragment (LgBiT) was added at 1:100 dilution and NLuc substrate (furimazine) was prepared at 1:50 dilution in Nano-Glo HiBiT lytic buffer (Promega, Cat # N3040). This substrate solution, 3 μL/well, was added with a BioRaptr 2 and assay plates were protected from light and incubated for 10 min at ambient temperature. NLuc luminescence was measured on a ViewLux CCD plate reader with optimized reader settings to each protein target (see Supplementary Tables 10, 11 and Supplementary Fig. 14 for additional details).
On the technique in general: With HiBiT, luminescence reflects the tagged protein that the partner subunit can reach.

In the case of `Nc1nc2[nH]cc(CCc3ccc(C(=O)N[C@@H](CCC(=O)O)C(=O)O)cc3)c2c(=O)[nH]1` [pemetrexed], the “DHFR binding in SDR assay (in words)” value in assay [1] (purified DHFR-C-HiBiT) was “poor DHFR affinity”. Besides, the “DHFR affinity in functional assay (in words)” value in assay [2] (DHFR-C-HiBiT 100 nM, 75 μM NADPH) is reported as “poor DHFR affinity”.
For the compound `C#CCC(Cc1cnc2nc(N)nc(N)c2n1)c1ccc(C(=O)N[C@@H](CCC(=O)O)C(=O)O)cc1` (some centres unmarked) [pralatrexate], the EC50 in assay [3] (1:100 lysate (~0.2 nM) with 1 mM NADPH, read-out: pSDR50 (lysate + 1 mM NADPH), Mean (converted)) is 0.316 nM; in assay [3] (1:100 lysate (~0.2 nM) without added NADPH, read-out: pSDR50 (lysate), Mean (converted)) it was 3.16 nM; in assay [1], 1.02 nM. For the same compound, in assay [1] (DHFR-C-HiBiT 0.5 nM, 5 μM NADPH (SDR) vs 100 nM, 75 μM NADPH (functional)), the “enhanced sensitivity in the SDR assay format versus functional DHFR assay” value is listed as ~ 100 fold. The IC50 in assay [2] (functional DHFR-C-HiBiT assay (100 nM), read-out: pIC50 (DHFR Enz Assay), Mean (converted)) is 107 nM.
For the compound `CN(Cc1cnc2nc(N)nc(N)c2n1)c1ccc(C(=O)NC(CC(F)C(=O)O)C(=O)O)cc1` (centres unmarked) [g-fluoromethotrexate], the “pSDR50 (lysate + 1 mM NADPH), Mean” value in assay [3] (1:100 lysate (~0.2 nM) with 1 mM NADPH) is given as 9.1. In assay [3] (1:100 lysate (~0.2 nM) without added NADPH), the “pSDR50 (lysate), Mean” value is recorded as 7.8. For the same compound, in assay [1] (SDR assay using DHFR-C-HiBiT (0.5 nM)), the “pSDR50 (DHFR-C-HiBiT), Mean” value worked out at 8.70. The “pIC50 (DHFR Enz Assay), Mean” value in assay [2] (functional DHFR-C-HiBiT assay (100 nM, 75 mM NADPH)) came out at 6.55.

For the origin of these results see paper PMC12064818, “A general assay platform to study protein pharmacology using ligand-dependent structural dynamics” (Nature Communications, 2025).
